Assay results: patent US20080293583A1, “Methods for diagnosing mood disorders” (Wyeth, priority 2003, published 2008)

What was measured:
Assay type in all cases: in vivo
[1] = system: Transcription Initiation factor IIA Gamma Chain; assay: 2-DE proteome analysis of rat hippocampus: TFIIA Gamma Chain; settings: rat hippocampus cytosolic extract, 10 mg/kg i.p. daily 14 days, vs control; gel spot 88
Protocol: (§1) Animal dosing. Adult male Sprague Dawley rats weighing 230-320 g were housed with ad libitum access to food and water. After 1 week of habituation, rats were administered either an antidepressant or vehicle alone. The following drugs were administered intraperitoneally (i.p.): fluoxetine (10 mg/kg daily), venlafaxine (10 mg/kg daily) or vehicle alone (1 ml/kg normal saline daily) for 14 days (n=3 rats per group).
(§2) Sample preparation and cytosolic protein extraction. The animals were euthanized and hippocampi were rapidly dissected from the whole brain. Samples from each treatment group were pooled and stored at −85° C. Cytosolic extracts were prepared using the universal extraction kit from Sigma (prot-two) as follows: soluble cytoplasmic extraction reagent (S2688) was added to the hippocampal tissue (10 ml/250 mg wet weight). […]
(§3) Two-dimensional gel electrophoresis. […] Molecular masses were determined by running standard protein markers (Genomic Solutions Inc.), covering the range 10-200 kDa as well as internal verification via landmark proteins within the gel. […]
(§4) Protein fixation, silver staining and 2-D gel comparisons. […] Protein spots were outlined (first automatically and then manually) and quantified using the HT analyzer v2.2 software (Genomic Solutions Inc.). The software calculated the relative spot volume of the proteins compared with the total amount of protein in the gel. […]

[2] = system: 10 KD heat shock protein, mitochondrial (Hsp10); assay: 2-DE proteome analysis of rat hippocampus: Hsp10; settings: rat hippocampus cytosolic extract, 10 mg/kg i.p. daily 14 days, vs control; gel spot 83
Protocol: as §1, §2, §3, §4

[3] = system: 40 S ribosomal protein S 19; assay: 2-DE proteome analysis of rat hippocampus: ribosomal protein S 19; settings: rat hippocampus cytosolic extract, 10 mg/kg i.p. daily 14 days, vs control; gel spot 72
Protocol: as §1, §2, §3, §4

[4] = system: Myelin Basic Protein S (MBP S); assay: 2-DE proteome analysis of rat hippocampus: MBP S; settings: rat hippocampus cytosolic extract, 10 mg/kg i.p. daily 14 days, vs control; gel spot 64
Protocol: as §1, §2, §3, §4

[5] = system: 61 S Ribosomal protein L28; assay: 2-DE proteome analysis of rat hippocampus: Ribosomal protein L28; settings: rat hippocampus cytosolic extract, 10 mg/kg i.p. daily 14 days, vs control; gel spot 66
Protocol: as §1, §2, §3, §4

[6] = system: NG, NG-Dimethylarginine Dimethylaminohydrolase 1 (DDAH1); assay: 2-DE proteome analysis of rat hippocampus: DDAH1; settings: rat hippocampus cytosolic extract, 10 mg/kg i.p. daily 14 days, vs control; gel spot 18
Protocol: as §1, §2, §3, §4

[7] = system: 60S Ribosomal Protein L18A; assay: 2-DE proteome analysis of rat hippocampus: Ribosomal Protein L18A; settings: rat hippocampus cytosolic extract, 10 mg/kg i.p. daily 14 days, vs control; gel spot 58
Protocol: as §1, §2, §3, §4

| Structure (SMILES) | Fold change, Transcription Initiation factor IIA Gamma Chain [1] [Fold change] | Fold change, 10 KD heat shock protein, mitochondrial (Hsp10) [2] [Fold change] | Fold change, 40 S ribosomal protein S 19 [3] [Fold change] | Fold change, Myelin Basic Protein S (MBP S) [4] [Fold change] | Fold change, 61 S Ribosomal protein L28 [5] [Fold change] | Fold change, NG, NG-Dimethylarginine Dimethylaminohydrolase 1 (DDAH1) [6] [Fold change] | Fold change, 60S Ribosomal Protein L18A [7] [Fold change] |
| --- | --- | --- | --- | --- | --- | --- | --- |
| CNCCC(Oc1ccc(C(F)(F)F)cc1)c1ccccc1 (centres unmarked) [Fluoxetine, fluoxetine] | 2.5 | 2.3 | 2 | 3.1 | 0.7 | 1.6 | 1.8 |
| COc1ccc(C(CN(C)C)C2(O)CCCCC2)cc1 (centres unmarked) [Venlafaxine, venlafaxine] | 2.4 | 3.8 | 1.8 | 3.7 | 0.6 | 2.2 | 2.9 |
